# Calls of active or inactive are those of the source.
# Experiments:
# [1] = microbe, parasite or virus in culture; type: functional; settings: Mycobacterium tuberculosis
# [2] = target: T1, Protein skinhead-1 (Caenorhabditis elegans, UniProt P34707); type: functional
# T1 sequence (P34707 whole entry): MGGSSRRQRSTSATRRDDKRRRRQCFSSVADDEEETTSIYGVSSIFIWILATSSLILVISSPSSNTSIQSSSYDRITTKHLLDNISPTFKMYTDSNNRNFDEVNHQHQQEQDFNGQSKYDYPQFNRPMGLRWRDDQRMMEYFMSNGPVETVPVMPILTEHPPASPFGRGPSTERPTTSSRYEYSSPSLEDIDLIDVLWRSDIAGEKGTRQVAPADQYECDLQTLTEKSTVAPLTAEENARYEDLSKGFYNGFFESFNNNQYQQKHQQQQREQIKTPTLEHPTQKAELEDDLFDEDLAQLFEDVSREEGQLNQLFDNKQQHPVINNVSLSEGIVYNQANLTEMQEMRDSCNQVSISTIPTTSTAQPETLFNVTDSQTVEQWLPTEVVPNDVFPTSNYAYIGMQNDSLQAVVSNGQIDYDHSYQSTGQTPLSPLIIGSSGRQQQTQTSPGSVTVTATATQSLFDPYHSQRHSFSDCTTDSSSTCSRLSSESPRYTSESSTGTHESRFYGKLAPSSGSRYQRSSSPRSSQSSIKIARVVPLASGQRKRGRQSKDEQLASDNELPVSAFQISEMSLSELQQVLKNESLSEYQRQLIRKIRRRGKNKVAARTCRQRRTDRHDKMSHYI
# [3] = Trypanosoma cruzi growth suppression in host cells – NIH3T3 host cells, beta-gal luminescence, confirmation (AID 2044); type: functional, cell-based;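 also: intracellular parasites grown in NIH/3T3 mouse fibroblasts as host cells; luminescent beta-galactosidase reporter signal from transgenic T. cruzi replicating inside host cells; inhibitors lower the luminescence signal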
# [4] = NIH3T3 cell viability loss – ATP luminescence, mouse fibroblasts, counter-screen, dose response (AID 2010); type: functional, cell-based;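 also: cells exposed to compound for about 90 hours before reading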
# [5] = target: T2, Estrogen receptor (Homo sapiens, UniProt P03372);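 also: potency for inhibiting coactivator peptide recruitment to the receptor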
# T2 sequence (P03372 whole entry): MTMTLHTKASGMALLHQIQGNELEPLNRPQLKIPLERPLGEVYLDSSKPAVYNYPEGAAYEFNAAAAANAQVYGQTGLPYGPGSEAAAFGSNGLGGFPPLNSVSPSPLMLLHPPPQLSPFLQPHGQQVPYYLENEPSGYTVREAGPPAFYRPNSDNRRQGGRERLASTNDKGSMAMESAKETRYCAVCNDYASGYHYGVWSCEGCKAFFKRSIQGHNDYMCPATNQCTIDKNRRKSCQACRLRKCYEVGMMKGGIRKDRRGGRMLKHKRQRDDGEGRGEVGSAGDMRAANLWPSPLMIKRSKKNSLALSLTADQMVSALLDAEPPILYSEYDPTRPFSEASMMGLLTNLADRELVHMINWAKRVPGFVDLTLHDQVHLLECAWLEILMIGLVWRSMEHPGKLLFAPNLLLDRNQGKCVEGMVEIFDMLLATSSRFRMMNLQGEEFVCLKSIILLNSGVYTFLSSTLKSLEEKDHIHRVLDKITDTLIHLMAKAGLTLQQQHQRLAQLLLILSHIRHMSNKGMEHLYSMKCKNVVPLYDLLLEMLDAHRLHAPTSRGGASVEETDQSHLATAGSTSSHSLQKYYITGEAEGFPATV
# [6] = target: T3, Carboxy-terminal domain RNA polymerase II polypeptide A small phosphatase 1 (Homo sapiens, UniProt Q9GZU7); experiment: CTDSP1 inhibitors, concentration-response, biochemical, absorbance readout, ultra-high-throughput screen actives (AID 540297); type: functional
# T3 sequence (Q9GZU7 whole entry): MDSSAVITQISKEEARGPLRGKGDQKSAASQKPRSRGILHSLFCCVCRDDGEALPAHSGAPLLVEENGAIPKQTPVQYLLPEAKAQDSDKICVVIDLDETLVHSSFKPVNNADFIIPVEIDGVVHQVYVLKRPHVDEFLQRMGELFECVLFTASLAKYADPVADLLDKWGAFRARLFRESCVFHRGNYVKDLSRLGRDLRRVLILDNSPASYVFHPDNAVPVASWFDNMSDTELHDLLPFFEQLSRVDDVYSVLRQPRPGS
# [7] = A Cell Based Secondary Assay To Explore Cytotoxicity of Compounds that Sensitize Mycobacterium Tuberculosis to Beta-Lactam Antibiotics.; type: functional
# [8] = Luminescence Cell-Based Dose Retest to Confirm Inhibitors of Cancer Stem Cells. [Related pubchem assays (depositor defined):AID2717, AID2721]; type: functional; settings: Homo sapiens
# [9] = target: T4, Calpain-2 catalytic subunit (Sus scrofa, UniProt P43367); experiment: m-calpain protease blockers, concentration series – biochemical, fluorogenic peptide substrate, dose response (AID 1420); type: functional
# T4 sequence (P43367 whole entry): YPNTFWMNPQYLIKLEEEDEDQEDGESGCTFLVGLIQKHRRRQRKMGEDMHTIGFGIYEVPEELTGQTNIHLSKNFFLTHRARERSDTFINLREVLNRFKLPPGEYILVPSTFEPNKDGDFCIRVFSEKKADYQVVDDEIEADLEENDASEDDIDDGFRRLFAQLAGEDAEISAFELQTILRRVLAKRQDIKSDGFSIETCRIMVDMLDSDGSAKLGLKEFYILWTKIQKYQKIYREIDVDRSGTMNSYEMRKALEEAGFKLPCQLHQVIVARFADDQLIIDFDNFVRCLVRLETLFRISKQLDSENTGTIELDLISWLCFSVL
# [10] = target: T5, Microphthalmia-associated transcription factor (Homo sapiens, UniProt O75030); experiment: reducers of TRPM1 reporter luminescence, concentration series – cell-based, SK-MEL-5, cherry-picked, set 3, MITF inhibitor project, dose response (AID 493073); type: functional;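 also: SK-MEL-5 melanoma cells with luciferase driven by the MITF target TRPM1 promoter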
# T5 sequence (O75030 whole entry): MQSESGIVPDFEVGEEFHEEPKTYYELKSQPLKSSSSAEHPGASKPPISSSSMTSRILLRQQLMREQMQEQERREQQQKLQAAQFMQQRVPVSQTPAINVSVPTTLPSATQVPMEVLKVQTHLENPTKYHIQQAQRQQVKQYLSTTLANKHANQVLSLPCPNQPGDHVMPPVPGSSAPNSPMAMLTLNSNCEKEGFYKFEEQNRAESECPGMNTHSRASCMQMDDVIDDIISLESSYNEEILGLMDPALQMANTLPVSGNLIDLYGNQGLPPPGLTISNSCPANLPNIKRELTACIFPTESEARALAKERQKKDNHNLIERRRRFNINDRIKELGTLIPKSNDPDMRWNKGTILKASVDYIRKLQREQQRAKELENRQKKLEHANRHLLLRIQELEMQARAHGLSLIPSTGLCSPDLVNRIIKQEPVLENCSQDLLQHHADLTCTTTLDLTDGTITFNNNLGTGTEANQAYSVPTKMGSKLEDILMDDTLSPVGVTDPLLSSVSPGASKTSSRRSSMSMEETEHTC
# [11] = viability of HCT116 lacking mutant beta-catenin – cell-based, human colon tumor, dose response (AID 1045); type: functional;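 also: HCT116 colon tumor cells with beta catenin knocked out; cells exposed to compound for 60 hours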
# [12] = viability of PTEN-deleted HCT116 cells – cell-based, HCT116 PTEN knockout, dose response (AID 1047); type: functional;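 also: HCT116 colon tumor cells with PTEN knocked out; cells exposed to compound for 60 hours before readout; potency for loss of cell viability measured by luminescence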
# [13] = tested on: H9c2; experiment: cells; type: functional, cell-based; settings: Rattus norvegicus, H9c2, Myocardium;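 also: confirmatory concentration-response retest of ultra-high-throughput screening hits for modulation of myocardial damage; cell death induced by hydrogen peroxide oxidative stress; compound pretreatment for 60 min then peroxide exposure for 2 h; potency is for protecting the cells against peroxide damage rather than for killing them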
# [14] = target: T6, Heat shock factor protein 1 (Mus musculus, UniProt P38532); experiment: decrease of HSF1-responsive luciferase luminescence – cell-based, NIH3T3, dose retest, confirmation (AID 2382); type: functional;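 also: NIH3T3 fibroblasts with HSF1-driven luciferase reporter stressed by proteasome inhibitor MG132; luminescence from HSF1-driven luciferase expression after 8 hours of MG132 stress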
# T6 sequence (P38532 whole entry): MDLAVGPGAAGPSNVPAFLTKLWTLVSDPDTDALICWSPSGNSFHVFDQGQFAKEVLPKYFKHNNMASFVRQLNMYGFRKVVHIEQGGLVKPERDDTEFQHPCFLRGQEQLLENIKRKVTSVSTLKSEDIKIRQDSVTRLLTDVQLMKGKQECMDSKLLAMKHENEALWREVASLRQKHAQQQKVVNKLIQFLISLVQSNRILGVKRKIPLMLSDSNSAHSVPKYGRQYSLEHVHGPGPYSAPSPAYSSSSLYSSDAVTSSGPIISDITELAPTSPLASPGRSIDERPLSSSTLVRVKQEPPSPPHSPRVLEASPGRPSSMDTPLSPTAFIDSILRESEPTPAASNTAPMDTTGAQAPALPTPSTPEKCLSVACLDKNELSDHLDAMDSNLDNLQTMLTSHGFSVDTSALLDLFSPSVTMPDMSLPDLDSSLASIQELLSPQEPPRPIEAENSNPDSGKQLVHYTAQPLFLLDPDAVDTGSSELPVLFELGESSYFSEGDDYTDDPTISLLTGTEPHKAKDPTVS
# [15] = tested on: INS1; experiment: INS-1E survival protection against cytokine death – cell-based, luminescence, retest, dose response (AID 449756); type: functional; settings: Rattus norvegicus;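 also: cell death triggered by IL-1 beta plus TNF-alpha plus IFN-gamma mixture; protective hits raise ATP signal compared with cytokine alone wells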
smiles,measurement,setting,value
Cc1ccc(-c2noc(C3CCCN(C(=O)c4ccc(C(C)(C)C)cc4)C3)n2)o1 (stereo not drawn),CC50,[1],> 40 µM (active)
CCOc1ccc(NC(=O)CCN2CCN(C)CC2)cc1,IC50,[2],> 100 µM (inactive)
Cc1ccc(S(=O)(=O)n2ccc3c(OCCOCCNCc4ccc(F)cc4)cccc32)cc1,EC50,[3],0.226 µM (active)
same,CC50,[1],13.3 µM (active)
same,EC50,[4],> 30 µM (not active)
C/C(=N\NC(=N)SC1CC(=O)N(c2ccc(Cl)cc2)C1=O)c1cccs1 (stereo not drawn),CC50,[1],> 40 µM (active)
CCOc1ccc(NC(=O)c2cc3cc4ccc(OC)cc4nc3o2)cc1,IC50,[5],47.3 µM (not active)
same,IC50,[6],6.92 µM (active)
COc1cc2cnc(-c3ccsc3)c(-c3ccc(F)cc3)c2cc1OC,CC50,[7],> 40 µM (active)
NC(=O)CC(NC(=O)Cc1ccc(Br)cc1)c1ccc(NC2CCCCCC2)c([N+](=O)[O-])c1 (stereo not drawn),AC50,[8],4.61 µM (active)
same,CC50,[7],> 40 µM (active)
Cc1cc(C(F)(F)F)n2ncc(-c3ccc(F)cc3)c2n1,IC50,[2],> 100 µM (inactive)
COc1cc(CNCCO)cc(Br)c1OCc1ccccc1Cl,CC50,[7],20.3 µM (active)
COCCn1c(SCC(=O)Nc2cccc(C)c2)nnc1C(C)C,IC50,[2],> 100 µM (inactive)
CCCc1nc(SCC(=O)N2CCCc3ccccc32)c2c(=O)n(C)c(=O)n(C)c2n1,IC50,[9],16.7 µM (not active)
O=C(N/N=C/c1ccc([N+](=O)[O-])o1)c1ccccc1-n1cccc1,AC50,[10],17.1 µM (active)
same,CC50,[7],32.1 µM (active)
same,EC50,[3],0.137 µM (active)
same,EC50,[4],> 60 µM (not active)
O=C(CN1CCC(n2nnc3cc(C(F)(F)F)ccc32)CC1)NCc1cccs1,CC50,[1],> 40 µM (active)
Cc1ccc(CNc2nc3ccccc3n3nnnc23)cc1,IC50,[5],> 50 µM (not active)
COc1ccc(-c2nc(C(N)=O)c3[nH]c(=O)n(-c4cccc(Cl)c4)c3n2)cc1OC,IC50,[5],6.26 µM (active)
O=C(c1cccc(F)c1)N1CCN(c2cccc(C(F)(F)F)c2)CC1,IC50,[2],> 100 µM (inactive)
COc1cc(CNc2ccc(NC(C)=O)cc2)ccc1OCc1ccccc1C,CC50,[7],> 40 µM (active)
CN=C(S)N=NC1=C(O)c2cccc3cccc1c23,EC50,[11],10.5 µM (active)
same,EC50,[12],13.9 µM (active)
same,CC50,[7],28.2 µM (active)
O=C(NC1CCCCC1)C(c1ccc2ncccc2c1)N(Cc1ccco1)C(=O)c1ccc2c(c1)OCCO2 (stereo not drawn),IC50,[13],12.6 µM (active)
same,CC50,[1],> 40 µM (active)
CC(=O)c1c(C)[nH]c(C(=O)COc2ccc(C#N)cc2)c1C,IC50,[5],34 µM (not active)
Cn1nnnc1SCC(=O)NC1CCCCC1,IC50,[9],< 0.4 µM (not active)
CCOc1cc(C)c(S(=O)(=O)NC2CCCCC2)cc1C,EC50,[14],> 195 µM (not active)
same,IC50,[9],> 50 µM (not active)
FC(F)(F)c1cccc(NCc2nnc(S)n2C2CCCCC2)c1,IC50,[9],27.8 µM (not active)
CCN(CC)C(=O)c1cc([N+](=O)[O-])cc2c1-c1ccc([N+](=O)[O-])cc1C2=C(C#N)C#N,AC50,[15],6.32 µM (active)
same,CC50,[1],> 40 µM (active)
O=C1c2ccccc2C(=O)N1CCc1nc(-c2ccc(Cl)cc2)no1,IC50,[2],94.6 µM (inactive)
c1ccc(-n2nnc(-c3nccs3)n2)cc1,IC50,[2],88.2 µM (inactive)
COc1ccc(N2CCN(c3nc(NC(C)(C)C)nc(N4CCCCC4)n3)CC2)cc1,IC50,[9],24.4 µM (not active)
CCSc1nc2ccccc2c(=O)n1CCc1ccc(OC)c(OC)c1,CC50,[7],> 40 µM (active)
CCOc1ccc(Oc2ccc(-c3nnc(-c4ccccc4)o3)cc2[N+](=O)[O-])cc1,IC50,[9],4.33 µM (not active)
Cc1cc(F)ccc1S(=O)(=O)N1CCCOC1CNC(=O)C(=O)NCc1ccc2c(c1)OCO2 (stereo not drawn),IC50,[2],> 100 µM (inactive)
CCn1nc(C(=O)OCC(=O)N2c3ccccc3CC2C)c2ccccc2c1=O (stereo not drawn),IC50,[9],29.2 µM (not active)

# Source: ChEMBL document CHEMBL1201862, “PubChem BioAssay data set” (2004)
